From the NIST ThermoML archive (doi:10.1021/je2012633)

Key:
[1] = xn = mol fraction of the nth substance listed; details: 101 kPa, Liquid, Vibrating tube method
[2] = 101 kPa, Liquid, Vibrating tube method

CCCCOS(=O)(=O)[O-].CC[n+]1ccn(C)c1 [3-ethyl-1-methylimidazolium butyl sulfate] + CCO
mass density [kg/m3], [1]
Details	288.15 K	298.15 K	308.15 K	318.15 K
x1 = 0.0498	864.5	856.2	847.9	839.5
x1 = 0.0989	915.1	907.1	898.9	890.9
x1 = 0.1938	987	979.3	971.6	963.8
x1 = 0.2904	1037.4	1030	1022.4	1014.8
x1 = 0.3812	1072.1	1064.8	1057.6	1050.4
x1 = 0.4691	1098.2	1091	1083.9	1076.9
x1 = 0.4993	1105.9	1098.8	1091.1	1083.7
x1 = 0.5699	1122	1114.9	1107.9	1101
x1 = 0.6866	1143.7	1136.7	1129.7	1122.8
x1 = 0.7858	1158.4	1151.6	1144.7	1138
x1 = 0.8794	1169.9	1163.1	1156.3	1149.6
x1 = 1	1182.5	1175.7	1169	1162.4

CCCCOS(=O)(=O)[O-].CC[n+]1ccn(C)c1 [3-ethyl-1-methylimidazolium butyl sulfate] + O
mass density [kg/m3], [1]
Details	288.15 K	298.15 K	308.15 K	318.15 K
x1 = 0.0526	1081	1075.8	1069.6	1063.2
x1 = 0.0987	1114.3	1107.5	1100.5	1093.4
x1 = 0.2007	1146.1	1139.1	1131.9	1124.7
x1 = 0.2973	1159.3	1152.3	1145.3	1138.3
x1 = 0.3957	1167.2	1160.2	1153.2	1146.3
x1 = 0.4866	1171.7	1164.8	1158	1151.1
x1 = 0.5868	1175	1168.4	1161.5	1154.7
x1 = 0.6909	1177.9	1171.1	1164.3	1157.6
x1 = 0.7872	1179.6	1172.9	1166.2	1159.5
x1 = 0.8922	1181.4	1174.5	1167.9	1161.2
x1 = 0.9416	1181.8	1175	1168.3	1161.7
x1 = 1	1182.5	1175.7	1169	1162.4

CCO [ethanol]
[2]
Details	mass density [kg/m3]
288.15 K	794.4
298.15 K	785.8
308.15 K	777.1
318.15 K	768.3

CCO [ethanol] + CCOS(=O)(=O)[O-].CCn1cc[n+](C)c1
[1], x2 = 0
Details	mass density [kg/m3]
288.15 K	794.4
298.15 K	785.8
308.15 K	777.1
318.15 K	768.3

O [water] + CCCCCCOS(=O)(=O)[O-].CC[n+]1ccn(C)c1
Details	mass density [kg/m3]
[1], 308.15 K, x2 = 0	994.1

O [water] + CCOS(=O)(=O)[O-].CCn1cc[n+](C)c1
Details	mass density [kg/m3]
[1], 308.15 K, x2 = 0	994.1
